Measurements reported in US7645776B2, “Heteroaryl substituted piperidine derivatives which are L-CPT1 inhibitors” (Hoffmann-La Roche Inc., priority 2005, dated 2010).

target: T1, liver carnitine palmitoyl transferase 1 (L-CPT1) (Homo sapiens, UniProt P50416); test: L-CPT1 inhibition, spectrophotometric DTNB (Ellman's reagent) CPT activity assay; assay type: biochemical
T1 construct: made in house; host or cells: Pichia pastoris strain X-33 (crude cell-free extract)
T1 sequence (P50416 1-773): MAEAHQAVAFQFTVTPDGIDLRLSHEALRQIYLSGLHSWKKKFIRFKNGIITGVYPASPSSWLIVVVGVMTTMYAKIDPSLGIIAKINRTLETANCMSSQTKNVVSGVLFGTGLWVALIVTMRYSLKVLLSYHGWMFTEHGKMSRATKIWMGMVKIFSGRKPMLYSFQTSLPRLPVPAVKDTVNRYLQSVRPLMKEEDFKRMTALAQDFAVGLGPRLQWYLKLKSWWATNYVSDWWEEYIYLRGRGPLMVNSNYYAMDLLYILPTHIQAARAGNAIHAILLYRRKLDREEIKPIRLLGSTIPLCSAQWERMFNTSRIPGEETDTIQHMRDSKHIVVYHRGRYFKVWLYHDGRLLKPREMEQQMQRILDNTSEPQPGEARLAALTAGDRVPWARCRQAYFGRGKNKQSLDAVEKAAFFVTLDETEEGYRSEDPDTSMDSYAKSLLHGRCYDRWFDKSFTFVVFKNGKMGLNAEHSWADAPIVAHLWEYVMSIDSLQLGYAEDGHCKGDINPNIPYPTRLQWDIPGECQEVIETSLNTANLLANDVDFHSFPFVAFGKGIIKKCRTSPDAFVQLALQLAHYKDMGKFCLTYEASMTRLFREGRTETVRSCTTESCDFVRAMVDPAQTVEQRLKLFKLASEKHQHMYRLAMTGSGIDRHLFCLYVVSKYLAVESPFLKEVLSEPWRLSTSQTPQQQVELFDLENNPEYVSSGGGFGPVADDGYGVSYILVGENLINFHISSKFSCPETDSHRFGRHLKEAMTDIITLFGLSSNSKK
Procedure: The following tests were carried out in order to determine the activity of the compounds of the present invention. Background information on the performed assays can be found in: Jackson et al., 1999, Biochem. J. 341, 483-489 and Jackson et al., 2000, J. Biol. Chem. 275, 19560-19566.
Human liver and muscle CPT1 cDNAs and rat CPT2 cDNA were subcloned in pGAPZB or pGAPZA, respectively. These plasmids were used to transform P. pastoris strain X-33 via electroporation after the preparation of electrocompetent cells. High copy number clones were selected where necessary using 0.5 or 1 mg/ml Zeocin. Cultures for activity measurements were induced for 16 h in YPD medium (1% yeast extract, 2% peptone, 2% glucose). Crude cell extracts were prepared by disrupting the cells with glass beads or French Press, depending on fermenter sizes. After centrifugation, the cell-free extracts were resuspended in cell breaking buffer (50 mM Tris, pH7.4, 100 mM KCl, 1 mM EDTA) in the presence of a protease inhibitor cocktail, before aliquoting and freezing at −20° C.
CPT activity was measured using a spectrophotometric assay using 5,5′-dithio-bis-(2-nitrobenzoic acid) (DTNB) also called Ellman's reagent. The HS-CoA released on the formation of acylcarnitine from carnitine (500 μM) and palmitoyl-CoA (80 μM) reduced DTNB (300 μM) forming 5-mercapto-(2-nitrobenzoic acid) which absorbed at 410 nm with a molar coefficient extinction of 13600 M^−1.cm^−1. The assay buffer contained 120 mM KCl, 25 mM Tris, pH 7.4, 1 mM EDTA. This assay was used for the identification of selective inhibitors of the liver CPT1 isoform versus the muscle CPT1 and CPT2 isoforms.

Row | Structure (SMILES) | IC50 [nM]
1 | O=C(COc1ccccc1)N1CCCC[C@@H]1c1nc(-c2ccc(F)cc2)no1 [Example 10, (R)-1-{2-[3-(4-Fluoro-phenyl)-[1,2,4]oxadiazol-5-yl]-piperidin-1-yl}-2-phenoxy-ethanone] | 260
2 | COc1ccc(-c2n[nH]c([C@H]3CN(C)CCN3C(=O)COc3ccccc3)n2)cc1 [Example 172, (R)-1-{2-[5-(4-Methoxy-phenyl)-2H-[1,2,4]triazol-3-yl]-4-methyl-piperazin-1-yl}-2-phenoxy-ethanone] | 242
3 | COc1ccc(-c2noc([C@H]3CCCCN3C(=O)COc3ccccc3)n2)cc1 [Example 1, (R)-1-{2-[3-(4-Methoxy-phenyl)-[1,2,4]oxadiazol-5-yl]-piperidin-1-yl}-2-phenoxy-ethanone] | 66
